In patent US20240327506A1, “METHODS AND COMPOSITION FOR THE SELECTIVE ENHANCEMENT OF ADOPTIVE CELL THERAPY” (MaineHealth, priority 2023, published 2024):

Assays:
[1] = test system: primary murine CD4+ Treg cells; assay: Migration of primary CD4+ Treg cells on denatured collagen type-IV; format: cell-based; details: Treg from spleens of B16F10 tumor bearing mice, compared to CP
Description: Briefly, mice (C57BL/6) were injected subcutaneously with B16F10 cells. B16F10 tumors were allowed to grow for 14-days to allow formation of solid malignant melanomas. Spleens from tumor bearing mice were dissected and primary murine CD4+ Treg cells were isolated and analyzed for the effects of the soluble collagen peptide (P2) or control peptide (CP) on cell migration on denatured collagen type-IV. Data bars represent mean CD4+ Treg cell migration+SE from 3 wells per condition.
Given our surprising finding that CD4+ Treg cell migration is enhanced on denatured collagen-IV as compared to native collagen-IV, we next tested whether CD4+ Treg cell migration through denatured collagen-IV is altered by endogenously generated soluble RGDKGE (SEQ ID NO: 1) collagen peptide P2. For these experiments, mice (C57BL/6) were injected subcutaneously with B16F10 cells. B16F10 tumors were allowed to grow for 14-days to allow formation of solid malignant melanomas. Spleens from tumor bearing mice were dissected and primary murine CD4+ Treg cells were isolated and analyzed for the effects of the soluble collagen peptide (P2) or control peptide (CP) on cell migration on denatured collagen type-IV. […]

[2] = test system: angiogenesis and inflammation; details: peptide; cited from earlier work
[3] = test system: primary murine CD8+ T-cells; assay: CD8+ T-cell polarization on denatured collagen type-IV (F-actin staining); format: cell-based; details: denatured collagen type-IV coated slides, 1 hour, compared to CP
Description: FIGS. 3A-3C. The RGDKGE (SEQ ID NO: 1)-containing collagen peptide P2 inhibits CD8+ T-cell polarization on denatured collagen type-IV. Briefly, microscopy slides were coated with denatured collagen type-IV to mimic the altered subendothelial basement membranes of tumor associated blood vessels. Murine primary CD8+ T-cells were isolated from mice bearing B16F10 melanomas and stimulated with either non-specific control peptide CP or the RGDKGE (SEQ ID NO: 1)-containing collagen peptide P2 and seeded on the coated slides. T-cells were allowed to incubate for 1 hour. Next slides were washed, fixed and stained with Rhodamine-labeled Phalloidin to mark F-actin. Cells were analyzed for morphological evidence of cell shape changes and polarized F-actin. FIG. 3A. Example of an enlarged image of CD8+ T-cell morphology following stimulation with either non-specific control peptide CP or the RGDKGE (SEQ ID NO: 1)-containing collagen peptide P2. FIG. 3B. Example of CD8+ T-cell morphology following stimulation with either non-specific control peptide CP or the RGDKGE (SEQ ID NO: 1)-containing collagen peptide P2. […] FIG. 3C. Quantification of the mean percentage of polarized CD8+ T-cells per 400× microscopic field. Data bars indicate mean percentage of polarized cells per 400× microscopic field from two independent experiments with 10 to 11 fields per treatment. *P<0.05. […]

αvβ3 = αvβ3 (Homo sapiens, UniProt P05106+P06756); details: cited from earlier work
Chain of αvβ3 (P06756 31-889 limits assumed): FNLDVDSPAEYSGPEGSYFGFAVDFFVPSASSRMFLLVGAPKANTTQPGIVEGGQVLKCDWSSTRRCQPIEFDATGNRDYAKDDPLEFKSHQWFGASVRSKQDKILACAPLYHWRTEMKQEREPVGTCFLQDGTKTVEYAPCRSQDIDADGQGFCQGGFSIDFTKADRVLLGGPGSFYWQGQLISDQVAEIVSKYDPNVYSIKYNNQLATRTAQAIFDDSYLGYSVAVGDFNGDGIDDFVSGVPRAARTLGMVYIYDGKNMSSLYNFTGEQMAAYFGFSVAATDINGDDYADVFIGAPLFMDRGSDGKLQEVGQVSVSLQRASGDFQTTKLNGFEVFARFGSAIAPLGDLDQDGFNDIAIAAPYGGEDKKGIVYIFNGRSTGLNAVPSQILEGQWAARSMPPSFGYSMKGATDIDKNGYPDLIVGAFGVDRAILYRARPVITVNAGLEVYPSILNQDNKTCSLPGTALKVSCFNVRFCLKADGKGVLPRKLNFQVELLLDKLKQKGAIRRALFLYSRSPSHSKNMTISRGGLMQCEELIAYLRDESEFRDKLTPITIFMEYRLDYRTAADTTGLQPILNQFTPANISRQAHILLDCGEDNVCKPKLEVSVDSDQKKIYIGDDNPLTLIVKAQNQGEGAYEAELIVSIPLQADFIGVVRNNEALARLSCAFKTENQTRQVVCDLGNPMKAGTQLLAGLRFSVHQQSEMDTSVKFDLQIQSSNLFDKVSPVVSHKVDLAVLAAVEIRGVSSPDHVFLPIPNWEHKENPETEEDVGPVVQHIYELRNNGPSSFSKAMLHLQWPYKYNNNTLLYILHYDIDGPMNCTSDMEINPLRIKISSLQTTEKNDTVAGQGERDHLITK
Chain of αvβ3 (P06756 891-1048 partner limits assumed): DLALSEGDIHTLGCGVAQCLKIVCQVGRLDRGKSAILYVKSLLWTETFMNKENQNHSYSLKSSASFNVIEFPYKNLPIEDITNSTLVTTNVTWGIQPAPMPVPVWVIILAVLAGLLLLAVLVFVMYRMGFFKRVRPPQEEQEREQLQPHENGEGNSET
Chain of αvβ3 (P05106 27-788): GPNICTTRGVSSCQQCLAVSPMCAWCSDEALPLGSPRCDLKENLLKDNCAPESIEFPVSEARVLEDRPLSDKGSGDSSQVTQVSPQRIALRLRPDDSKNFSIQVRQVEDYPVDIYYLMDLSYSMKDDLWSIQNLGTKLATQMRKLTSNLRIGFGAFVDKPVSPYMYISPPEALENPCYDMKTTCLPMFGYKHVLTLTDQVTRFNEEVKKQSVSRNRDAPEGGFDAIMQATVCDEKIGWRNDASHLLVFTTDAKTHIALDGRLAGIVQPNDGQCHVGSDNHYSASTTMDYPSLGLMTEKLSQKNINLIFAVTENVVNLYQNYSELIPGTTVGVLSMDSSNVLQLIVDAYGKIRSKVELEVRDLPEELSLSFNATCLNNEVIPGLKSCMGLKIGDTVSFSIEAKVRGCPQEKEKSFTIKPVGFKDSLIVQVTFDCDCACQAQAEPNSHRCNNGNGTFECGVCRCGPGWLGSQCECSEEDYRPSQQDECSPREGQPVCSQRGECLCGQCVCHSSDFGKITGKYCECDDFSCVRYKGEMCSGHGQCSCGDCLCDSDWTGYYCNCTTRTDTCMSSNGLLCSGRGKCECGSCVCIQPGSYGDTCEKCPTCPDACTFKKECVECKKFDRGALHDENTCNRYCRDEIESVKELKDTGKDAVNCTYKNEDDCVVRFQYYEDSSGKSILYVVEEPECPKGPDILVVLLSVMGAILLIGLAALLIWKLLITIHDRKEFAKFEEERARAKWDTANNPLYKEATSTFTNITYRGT

## QGPRGDKGE (CQGPRGDKGEC; Synthetic: Synthetic collagen RGD containing peptide P-2) [Peptide P2, synthetic version of the soluble RGDKGE-containing collagen peptide]
[1]
  mean CD4+ Treg cell migration cell count: significant increase
[2]
  induction of angiogenesis and inflammation in vivo: significantly induced angiogenesis and inflammation
[3]
  percentage of T-cells exhibiting a migratory and polarized morphological phenotype: significant decrease
αvβ3
  binding to αvβ3: bound
